Our source for the IC50 values is patent US8962608B2, “Cycloalkylnitrile pyrazole carboxamides as janus kinase inhibitors” (Merck Sharp & Dohme Corp., priority 2011, dated 2015).

Assay [1] concerns the target JAK2 (recombinant purified GST-tagged catalytic domain) (Homo sapiens (Human), UniProt O60674). Put plainly: biochemical.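 Also: biochemical JAK kinase assay with HTRF detection.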
The target in assay [2] is JAK1 (recombinant purified GST-tagged catalytic domain) (Homo sapiens (Human), UniProt P23458). Kind of assay: biochemical.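 Also: biochemical assay with HTRF read-out.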
Sequence of JAK1 (recombinant purified GST-tagged catalytic domain) (P23458 875-1153): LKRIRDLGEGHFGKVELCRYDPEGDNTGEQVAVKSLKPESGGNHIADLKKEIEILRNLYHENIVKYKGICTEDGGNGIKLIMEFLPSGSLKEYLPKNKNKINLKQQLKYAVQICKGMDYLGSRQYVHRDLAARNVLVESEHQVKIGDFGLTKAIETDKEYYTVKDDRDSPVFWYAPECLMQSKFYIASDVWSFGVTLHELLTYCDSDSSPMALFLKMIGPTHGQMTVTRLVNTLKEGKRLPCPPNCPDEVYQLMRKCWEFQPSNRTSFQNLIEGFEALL

Sequence of JAK2 (recombinant purified GST-tagged catalytic domain) (O60674 849-1124): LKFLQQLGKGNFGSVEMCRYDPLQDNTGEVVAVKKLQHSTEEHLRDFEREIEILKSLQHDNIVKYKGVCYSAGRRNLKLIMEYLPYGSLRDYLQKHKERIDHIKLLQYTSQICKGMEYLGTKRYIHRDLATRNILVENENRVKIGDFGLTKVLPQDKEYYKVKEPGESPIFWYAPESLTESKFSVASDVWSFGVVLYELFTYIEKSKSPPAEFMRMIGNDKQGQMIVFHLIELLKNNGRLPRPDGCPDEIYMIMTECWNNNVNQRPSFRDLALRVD

`N#C[C@H]1CCCC[C@@H]1n1cc(C(N)=O)c(Nc2ccc(C(F)F)nc2)n1` (single isomer, unassigned) [Example 17-59, 1-[(1S,2S or 1R,2R)-2-cyanocyclohexyl]-3-{[6-(difluoromethyl)pyridin-3-yl]amino}-1H-pyrazole-4-carboxamide]: the IC50 in assay [1] was 13 nM; in assay [2], 2 nM.
In the same order, the values of `N#C[C@H]1C[C@@H](N2CC(F)C2)CC[C@@H]1n1cc(C(N)=O)c(Nc2ccc(S(=O)(=O)C(F)(F)F)cc2)n1` (single isomer, unassigned) [Example 28-113, 1-[(1S,2S,4S or 1R,2R,4R)-2-cyano-4-(3-fluoroazetidin-1-yl)cyclohexyl]-3-({4-[(trifluoro-methyl)sulfonyl]phenyl}amino)-1H-pyrazole-4-carboxamide] are 13 nM and 1 nM.
For `N#C[C@H]1CCC[C@H](O)C1n1cc(C(N)=O)c(Nc2ccccc2)n1` (mixture of isomers) [Example 2-7, 1-[(1R,2S,6S and 1S,2R,6R)-2-cyano-6-hydroxycyclohexyl]-3-(phenylamino)-1H-pyrazole-4-carboxamide], in that order: 320 nM and 170 nM.
For `CS(=O)(=O)C1CN(C(=O)[C@H]2CC[C@H](n3cc(C(N)=O)c(Nc4ccc(Cl)cc4)n3)[C@@H](C#N)C2)C1` (single isomer, unassigned) [Example 35-26, 3-[(4-chlorophenyl)amino]-1-[(1S,2S,4S or 1R,2R,4R)-2-cyano-4-{[3-(methylsulfonyl)azetidin-1-yl]carbonyl}cyclohexyl]-1H-pyrazole-4-carboxamide], in that order: 49 nM and 2 nM.
In the case of `CC(=O)O[C@H]1C[C@H](C#N)[C@@H](n2cc(C(N)=O)c(Nc3ccc(C(F)(F)F)cc3)n2)C[C@@H]1O` [Example 41], the IC50 in assay [1] amounted to 184 nM; in assay [2], 20 nM.
With `N#C[C@@H]1C[C@H](C(=O)NC2COC2)CC[C@H]1n1cc(C(N)=O)c(Nc2ccc(Cl)cc2)n1` (single isomer, unassigned) [Example 35-13, 3-[(4-chlorophenyl)amino]-1-[(1R,2R,4R or 1S,2S,4S)-2-cyano-4-(oxetan-3-ylcarbamoyl)cyclohexyl]-1H-pyrazole-4-carboxamide], the figures for the IC50 in assay [1] and in assay [2] were 38 nM and 5 nM, respectively.
For the molecule `N#C[C@H]1C[C@H](NC2CCC2)CC[C@@H]1n1cc(C(N)=O)c(Nc2ccc(C(F)(F)F)cc2)n1` (single isomer, unassigned) [Example 30-14, 1-[(1S,2S,4R or 1R,2R,4S)-2-cyano-4-(cyclobutylamino)cyclohexyl]-3-{[4-(trifluoro-methyl)phenyl]amino}-1H-pyrazole-4-carboxamide], the IC50 in assay [1] is 1050 nM; in assay [2] it was 51 nM.
For `N#C[C@H]1CCCC[C@@H]1n1cc(C(N)=O)c(Nc2ccc(S(=O)(=O)N3CCC4(CC3)OCCO4)cc2)n1` (single isomer, unassigned) [Example 17-92, 1-[(1R,2R or 1S,2S)-2-cyanocyclohexyl]-3-{[4-(1,4-dioxa-8-azaspiro[4.5]dec-8-ylsulfonyl)phenyl]amino}-1H-pyrazole-4-carboxamide], in that order: 3 nM and 0.9 nM.
For `N#C[C@H]1C[C@@H](OC(=O)NC2CCCCC2)CCC1n1cc(C(N)=O)c(Nc2ccc(F)cc2)n1` (mixture of isomers) [Example 34-2, (1S,3S,4S and 1R,3R,4R)-4-{4-carbamoyl-3-[(4-fluorophenyl)amino]-1H-pyrazol-1-yl}-3-cyanocyclohexyl cyclohexylcarbamate], in that order: 164 nM and 5 nM.
With `N#C[C@H]1C[C@@H](O)CC[C@@H]1n1cc(C(N)=O)c(Nc2ccc(Cl)c(Cl)c2)n1` (single isomer, unassigned) [Example 33-20, 1-[(1S,2S,4S or 1R,2R,4R)-2-cyano-4-hydroxycyclohexyl]-3-[(3,4-dichlorophenyl)amino]-1H-pyrazole-4-carboxamide], the IC50 was determined as 20 nM in assay [1] and 2 nM in assay [2].
For `N#C[C@H]1C[C@@H](N2CC3(CCC3)C2)CC[C@@H]1n1cc(C(N)=O)c(Nc2ccnc(F)c2)n1` (single isomer, unassigned) [Example 28-133, 1-[(1S,2S,4S or 1R,2R,4R)-4-(2-azaspiro[3.3]hept-2-yl)-2-cyanocyclohexyl]-3-[(2-fluoropyridin-4-yl)amino]-1H-pyrazole-4-carboxamide], in that order: 36 nM and 0.5 nM.
For `N#C[C@@H]1CC(CN)CCC1n1cc(C(N)=O)c(Nc2ccc(F)cc2)n1` (mixture of isomers) [Example 9, 1-((1R,2R and 1S,2S)-4-(Aminomethyl)-2-cyanocyclohexyl)-3-((4-fluorophenyl)amino)-1H-pyrazole-4-carboxamide], in that order: 247 nM and 12 nM.
As for `CC1(O)CN(C(=O)[C@@H]2CC[C@@H](n3cc(C(N)=O)c(Nc4ccc(Cl)cc4)n3)[C@H](C#N)C2)C1` (single isomer, unassigned) [Example 35-27, 3-[(4-chlorophenyl)amino]-1-{(1R,2R,4R or 1S,2S,4S)-2-cyano-4 [(3-hydroxy-3-methylazetidin-1-yl)carbonyl]cyclohexyl}-1H-pyrazole-4-carboxamide], the values for the IC50 in assay [1] and in assay [2] were 35 nM and 5 nM, respectively.
For `N#C[C@H]1C[C@@H](O)CC[C@@H]1n1cc(C(N)=O)c(Nc2ccc(C(F)F)nc2)n1` (single isomer, unassigned) [Example 33-8, 1-[(1S,2S,4S or 1R,2R,4R)-2-cyano-4-hydroxycyclohexyl)-3-{I6-(difluoromethyl)pyridin-3-yl]amino}-1H-pyrazole-4-carboxamide], in that order: 33 nM and 8 nM.
Consider `N#C[C@H]1C[C@@H](CF)CC[C@@H]1n1cc(C(N)=O)c(Nc2ccnc(F)c2)n1` (racemic) [Example 37, 1-[(1S,2S,4S and 1R,2R,4R)-2-Cyano-4-(fluoromethyl)cyclohexyl]-3-[(2-fluoropyridin-4-yl)amino]-1H-pyrazole-4-carboxamide], for which the results for the IC50 in assay [1] and in assay [2] were 13 nM and 0.8 nM, respectively.
In the same order, the values of `C[C@H](N[C@@H]1CC[C@H](n2cc(C(N)=O)c(Nc3ccc(Cl)cc3)n2)[C@@H](C#N)C1)C1CC1` (single isomer, unassigned) [Example 28-98, 3-[(4-chlorophenyl)amino]-1-[(1S,2S,4R or 1R,2R,4S)-2-cyano-4-{[(1S)-1-cyclopropylethyl]amino}cyclo-hexyl]-1H-pyrazole-4-carboxamide] are 216 nM and 4 nM.
In the same order, the values of `CN(CC(F)F)[C@H]1CC[C@H](n2cc(C(N)=O)c(Nc3ccc(S(=O)(=O)C(F)(F)F)cc3)n2)[C@@H](C#N)C1` (single isomer, unassigned) [Example 28-114, 1-{(1S,2S,4S or 1R,2R,4R)-2-cyano-4-[(2,2-difluoroethyl)(methyl)amino]cyclo-hexyl}-3-({4-[(trifluoro-methyl)sulfonyl]phenyl}amino)-1H-pyrazole-4-carboxamide] are 29 nM and 3 nM.
On to `N#C[C@@H]1CCCC[C@H]1n1cc(C(N)=O)c(Nc2ccc(S(=O)(=O)N3CCC(Cc4ccccc4)CC3)cc2)n1` (single isomer, unassigned) [Example 17-69, 3-({4-[(4-benzylpiperidin-1-yl)sulfonyl]phenyl}amino)-1-[(1R,2R or 1S,2S)-2-cyanocyclohexyl]-1H-pyrazole-4-carboxamide], for which the IC50 in assay [1] came out at 67 nM; in assay [2] it was 30 nM.
For the molecule `N#C[C@H]1CCCC(F)[C@@H]1n1cc(C(N)=O)c(Nc2ccccc2)n1` (mixture of isomers) [Example 23-1, 1-[(1R,2S and 1S,2R)-2-Cyano-6-fluorocyclohexyl]-3-(phenylamino)-1H-pyrazole-4-carboxamide], the IC50 in assay [1] turned out to be 60 nM; in assay [2], 5 nM.
`N#C[C@H]1C[C@@H](N2CCC2)CC[C@@H]1n1cc(C(N)=O)c(Nc2ccc(Cl)cc2)n1` (single isomer, unassigned) [Example 28-100, 1-[(1S,2S,4S or 1R,2R,4R)-4-azetidin-1-yl-2-cyanocyclohexyl]-3-[(4-chlorophenyl)amino]-1H-pyrazole-4-carboxamide]: the IC50 in assay [1] came out at 41 nM; in assay [2], 0.7 nM.
In the same order, the values of `CC(C)(C)N[C@H]1CCC(n2cc(C(N)=O)c(Nc3ccc(C(F)(F)F)cc3)n2)[C@@H](C#N)C1` (single isomer, unassigned) [Example 28-204, 1-[(1S,2S,4S or 1R,2R,4R)-4-(tert-butylamino)-2-cyanocyclohexyl]-3-{[4-(trifluoromethyl)phenyl]amino}-1H-pyrazole-4-carboxamide] are 26 nM and 0.2 nM.
In the same order, the values of `COC1CN(C2CC[C@H](n3cc(C(N)=O)c(Nc4ccc(S(=O)(=O)C(F)(F)F)cc4)n3)[C@@H](C#N)C2)C1` (single isomer, unassigned) [Example 28-147, 1-[(1S,2S or 1R,2R)-2-cyano-4-(3-methoxyazetidin-1-yl)cyclohexyl]-3-({4-[(trifluoro-methyl)sulfonyl]phenyl}amino)-1H-pyrazole-4-carboxamide] are 5 nM and 0.45 nM.
For `CN(C)[C@H]1CC[C@H](n2cc(C(N)=O)c(Nc3ccnc(F)c3)n2)[C@@H](C#N)C1` (single isomer, unassigned) [Example 28-128, 1-[(1S,2S,4S or 1R,2R,4R)-2-cyano-4-(dimethylamino)cyclohexyl]-3-[(2-fluoropyridin-4-yl)amino]-1H-pyrazole-4-carboxamide], in that order: 110 nM and 3 nM.
On to `N#C[C@H]1CCCC[C@@H]1n1cc(C(N)=O)c(Nc2ccc(Br)cc2)n1` (single isomer, unassigned) [Example 17-26, 3-[(4-bromophenyl)amino]-1-[(1S,2S or 1R,2R)-2-cyanocyclohexyl]-1H-pyrazole-4-carboxamide], for which the IC50 in assay [1] worked out at 11 nM; in assay [2], 1 nM.

As a reminder, the IC50 is the concentration that inhibits the measured activity by half.
